Reference: ChEMBL document CHEMBL6114980, “Single or double lipid-modified ultra-short antimicrobial peptides for treating infections caused by resistant bacteria” (Eur J Med Chem, 2025)
The source made the active and inactive calls. No cut-off for these calls is given here.

Tests used:
[1] = tested on: Cell membrane; assay: Induction of inner membrane permeabilization in Escherichia coli at 0.5 to 1 times MIC measured for 135 mins by absorbance based analysis
[2] = tested on: Staphylococcus aureus; assay: Bactericidal activity against Staphylococcus aureus 25923 assessed as eradication of bacteria at 2 times MIC measured after 6 hrs by time-kill assay; assay type: functional, organism-based
[3] = tested on: Staphylococcus aureus; assay: Induction of morphological changes in Staphylococcus aureus assessed as cell aggregation adhesion at 2 times MIC measured after 120 mins by SEM analysis; assay type: functional, organism-based
[4] = tested on: Staphylococcus aureus; assay: Induction of cell membrane disruption in Staphylococcus aureus assessed as PI uptake at 2 to 4 times MIC measured after 120 mins by PI staining based flow cytometry analysis; assay type: functional, organism-based
[5] = tested on: Staphylococcus aureus; assay: Antibacterial activity against methicillin resistant Staphylococcus aureus infected in male BALB/c mouse model of skin wound infection assessed as reduction in wound area at 2 mg/kg, ip measured after 10 days post infection relative to control; assay type: functional; parameters: scale not given: the % may be the effect or the level left; conditions: time 10 day
[6] = tested on: Staphylococcus aureus; assay: Antibacterial activity against methicillin resistant Staphylococcus aureus infected in male BALB/c mouse model of skin wound infection assessed as appearance of intact structure of stratum corneum at 2 mg/kg, ip measured after 10 days post infection; assay type: functional, organism-based; conditions: time 10.0 day
[7] = tested on: Staphylococcus aureus; assay: Antibacterial activity against methicillin resistant Staphylococcus aureus infected in male BALB/c mouse model of skin wound infection assessed as healthy development of sebaceous glands at 2 mg/kg, ip measured after 10 days post infection; assay type: functional, organism-based; conditions: time 10.0 day
[8] = tested on: Staphylococcus aureus; assay: Antibacterial activity against methicillin resistant Staphylococcus aureus infected in male BALB/c mouse model of skin wound infection assessed as healthy development of hair follicles at 2 mg/kg, ip measured after 10 days post infection; assay type: functional, organism-based; conditions: time 10.0 day

SMILES	Activity [1]	Activity [2]	Activity [3]	Activity [4]	Activity [5]	Activity [6]	Activity [7]	Activity [8]
CC(C)(C)CC(C)(C)c1ccc(OCCO)cc1	Active							
CN[C@H](CC(C)C)C(=O)N[C@H]1C(=O)N[C@@H](CC(N)=O)C(=O)N[C@H]2C(=O)N[C@H]3C(=O)N[C@H](C(=O)N[C@H](C(=O)O)c4cc(O)cc(O)c4-c4cc3ccc4O)[C@H](O)c3ccc(c(Cl)c3)Oc3cc2cc(c3O[C@@H]2O[C@H](CO)[C@@H](O)[C@H](O)[C@H]2O[C@H]2C[C@](C)(N)[C@H](O)[C@H](C)O2)Oc2ccc(cc2Cl)[C@H]1O [VANCOMYCIN]		inactive	inactive	inactive	<20%	Active	Active	Active
